Reference: patent publication US20220142958A1, “MEDICINAL COMPOSITION HAVING EXCELLENT STABILITY” (EA Pharma Co., Ltd., priority 2019, published 2022)

Tests used:
Type in all cases: in vivo, rat
[1] = Estimated plasma concentration in bilaterally nephrectomized rats; conditions: 48 hours after single intravenous administration at 3 mg/kg
[2] = test system: serum iPTH concentration; experiment: Serum iPTH concentration in bilaterally nephrectomized rats after single intravenous administration
Text: (§1) After quarantine and acclimatization periods of 6 days, fifty-one rats (Crl: CD (SD), male) aged 7 weeks were fed a 100% sucrose diet ad libitum from four days before the surgery. On the day of the surgery, skin incisions were made on the back at the sites of the right and left kidneys under isoflurane anesthesia and the renal capsules were removed to ligate the renal arteries and veins and the ureters using threads before removing the right and left kidneys. A penicillin solution was given upon suturing, and 5 mL of physiological saline was intraperitoneally administered before returning the rats into the breeding cages.
(§2) On the day of administering the test substance, for example, a day after the bilaterally nephrectomy, approximately 100 μL of blood was collected from the tail vein without anesthesia using a capillary tube, which was centrifuged in a high speed refrigerated microcentrifuge (10,000 rpm, 5 min, 4° C.) to separate the serum. Thereafter, the serum Ca concentration was measured with a dri-chemanalyzer (model number: FUJI DRI-CHEM 7000, manufacturer: FUJI FILM Medical Co., Ltd.) to select individuals with a serum Ca concentration of 8.0 mg/dL or more and less than 14.0 mg/dL.
(§3) On a day after the bilaterally nephrectomy, the given doses were calculated based on the weight of the selected animals on that day. Group 1 was given a medium (physiological saline), Groups 2, 3 and 4 were given the Compound A1 solution (0.3, 3 and 30 mg/mL, respectively), and Groups 5, 6, 7 and 8 (5 rats per group) were given the comparative compound (0.3, 1, 3 and 10 mg/mL, respectively), each given a single dose of 1 ml/kg from the tail vein. Prior to the administration (0 hours), and 24 and 48 hours after the administration, approximately 300 μL of blood was collected without anesthesia from the tail vein using capillary tubes for obtaining the serum. The blood for obtaining the serum was left to stand at room temperature, and centrifuged in a high speed refrigerated microcentrifuge (10,000 rpm, 5 min, 4° C.) within a period of 30 minutes to 2 hours after the blood collection to collect the serum.
(§4) Thereafter, the serum Ca was analyzed with COBAS analyzer (Model number: COBAS INTEGRA 400 plus, manufacturer: Roche Diagnostics K.K.), and the remaining serum was stored in an ultra-low freezer (temperature set to −80±15° C.) until the day of iPTH measurement. On the day of iPTH measurement, the serum was melted at room temperature for measurement.
(§5) A 30 mg/ml Compound A1 solution ([…] of Compound A1 dissolved in 10 ml of physiological saline) was diluted with physiological saline to prepare 0.3 mg/ml and […] Compound A1 solutions.
(§6) 149 mg of etelcalcetide (Ac-c(C) arrrar-NH2) TFA salt (WO 2011/014707 A) was prepared to have pH of 6 to 8 with 7 ml of physiological saline and a 0.5N aqueous NaOH solution, and physiological saline was further added thereto to make 10 ml. The prepared 10 mg/ml comparative compound solution was diluted with physiological saline to obtain 0.3 mg/ml and 1 mg/ml comparative compound solutions.

[3] = test system: serum Ca concentration; experiment: Serum Ca concentration in bilaterally nephrectomized rats after single intravenous administration
Text: as §1, §2, §3, §4, §5, §6

[4] = test system: bilaterally nephrectomized rats; experiment: Survival of bilaterally nephrectomized rats after single doses; conditions: for number of rats surviving (of five per group): 48 hours after the administration
Text: as §1, §3

[5] = 0.3 mg/kg single i.v., 24 hours after the administration
[6] = 0.3 mg/kg single i.v., 48 hours after the administration
[7] = 1 mg/kg single i.v., 24 hours after the administration
[8] = 1 mg/kg single i.v., 48 hours after the administration
[9] = 3 mg/kg single i.v., 24 hours after the administration
[10] = 3 mg/kg single i.v., 48 hours after the administration
[11] = 10 mg/kg single i.v., 24 hours after the administration
[12] = 10 mg/kg single i.v., 48 hours after the administration (n=1)
[13] = logistic curve fitting, 48 hours after the administration vs given dose

## CC(=O)N[C@H](CSSC[C@H](N)C(=O)O)C(=O)N[C@H](C)C(=O)N[C@H](CCCNC(=N)N)C(=O)N[C@H](CCCNC(=N)N)C(=O)N[C@H](CCCNC(=N)N)C(=O)N[C@H](C)C(=O)N[C@H](CCCNC(=N)N)C(N)=O [comparative compound, etelcalcetide]
[1]
  plasma concentration (estimated): 0.13 µg/mL
[2]; [5]
  mean serum iPTH concentration: 122 pg/mL
[2]; [6]
  mean serum iPTH concentration: 510 pg/mL
[2]; [7]
  mean serum iPTH concentration: 52 pg/mL
[2]; [8]
  mean serum iPTH concentration: 280 pg/mL
[2]; [9]
  mean serum iPTH concentration: 22 pg/mL
[2]; [10]
  mean serum iPTH concentration: 41 pg/mL
[2]; [11]
  mean serum iPTH concentration: 104 pg/mL
[2]; [12]
  mean serum iPTH concentration: 230 pg/mL
[2]; [13]
  lower limit value of the serum iPTH concentration (simulated): 48.18 pg/mL
[2]; plasma concentration, rats
  50% effective concentration, EC50 value, for decreasing the serum iPTH concentration: 0.04 mg/L
[2]; renal failure rat models, during 48 hours after the administration, relation to dose
  decrease of serum iPTH and Ca concentrations: in a dose-dependent manner
[3]; [5]
  mean serum Ca concentration: 8.33 mg/dL
[3]; [6]
  mean serum Ca concentration: 10.44 mg/dL
[3]; [7]
  mean serum Ca concentration: 6.42 mg/dL
[3]; [8]
  mean serum Ca concentration: 7.33 mg/dL
[3]; [9]
  mean serum Ca concentration: 6.82 mg/dL
[3]; [10]
  mean serum Ca concentration: 5.85 mg/dL
[3]; [11]
  mean serum Ca concentration: 6.95 mg/dL
[3]; [12]
  mean serum Ca concentration: 6.65 mg/dL
[3]; [13]
  lower limit value of the serum Ca concentration (simulated): 5.880 mg/dL
[4]; 3 mg/kg group
  number of rats surviving (of five per group): four
[4]; 10 mg/kg group
  number of rats surviving (of five per group): one
[4]; relation to dose
  number of dead rats: increased in a dose-dependent manner
